Target: T1, dihydroorotate dehydrogenase (DHODH) (Homo sapiens, UniProt Q02127)
T1 construct: N-terminal His-tagged DHODH/ΔTM; Met29–Arg395
Test: DCIP reduction enzyme assay with recombinant human DHODH
Format: biochemical

T1 sequence (Q02127 29-395): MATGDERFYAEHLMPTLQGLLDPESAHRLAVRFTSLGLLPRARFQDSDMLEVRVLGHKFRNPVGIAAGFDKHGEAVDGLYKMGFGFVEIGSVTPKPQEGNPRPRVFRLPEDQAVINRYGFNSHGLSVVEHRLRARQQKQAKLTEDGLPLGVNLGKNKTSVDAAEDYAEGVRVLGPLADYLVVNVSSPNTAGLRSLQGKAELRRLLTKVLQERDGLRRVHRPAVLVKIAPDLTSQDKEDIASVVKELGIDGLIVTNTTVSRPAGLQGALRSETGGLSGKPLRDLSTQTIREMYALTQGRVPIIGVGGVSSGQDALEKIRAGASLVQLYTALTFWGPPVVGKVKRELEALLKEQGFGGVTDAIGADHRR

Structure (SMILES) | IC50
Cc1cc(=O)oc2c1ccc1oc(C(O)c3ccccc3)c(-c3ccccc3)c12 (centres unmarked) [H-006, 8-(Hydroxyphenylmethyl)-4-methyl-9-phenyl-2H-furo[2,3-h]-1-benzopyran-2-one] | 0.0038 µM
Cc1cc(=O)oc2c1ccc1oc(C(=O)c3ccccc3)c(-c3ccccc3)c12 [NPD723, 8-Benzoyl-4-methyl-9-phenyl-2H-furo[2,3-h]-1-benzopyran-2-one] | 1.52 µM

Source: paper PMC10513951, “Identification of a dihydroorotate dehydrogenase inhibitor that inhibits cancer cell growth by proteomic profiling” (Oncology Research, 2023)
